Test results from the NIST ThermoML archive (doi:10.1021/je800382b).
“And” between values parts separate entries of the source, which are not always exact repeats. Equal values may be shown once. ± gives the expanded uncertainty stated by the source.

How the values were obtained:
[1] = Molar enthalpy of transition or fusion; settings: DSC
[2] = DTA
[3] = molar heat capacity at constant pressure; settings: 101.33 kPa, Small sample (50 mg) DSC

c1ccc2cc3cc4ccccc4cc3cc2c1 [2,3-benzanthracene]
Settings | Molar enthalpy of transition or fusion, Crystal 1 [kcal/mol] | Molar enthalpy of transition or fusion, Crystal 2 [kcal/mol] | Molar enthalpy of transition or fusion, Crystal 3 [kcal/mol] | Normal melting temperature, Crystal 1 [°C] | Triple point temperature, Crystal 2 [K] | Triple point temperature, Crystal 3 [K]
[1] | 8.8 ± 0.263 | 0.287 ± 0.0478 | 0.0263 ± 0.0311 | – | – | –
[2] | – | – | – | 353.1 ± 0.4 | 581.9 ± 1.1 | 398.1 ± 2.4

[3]
Settings | molar heat capacity at constant pressure
258.1 K, Crystal 3 | 218.8 ± 5.4 J/K/mol and 220.8 ± 5.4 J/K/mol and 219.3 ± 5.4 J/K/mol
268.3 K, Crystal 3 | 230.5 ± 5.6 J/K/mol [middle of 4 runs]
278.5 K, Crystal 3 | 240.6 ± 5.9 J/K/mol [middle of 4 runs]
288.7 K, Crystal 3 | 250.4 ± 6.1 J/K/mol [middle of 4 runs]
298.9 K, Crystal 3 | 260.8 ± 6.4 J/K/mol [middle of 4 runs]
299.3 K, Crystal 3 | 260.9 ± 11 J/K/mol
309.1 K, Crystal 3 | 269.7 ± 6.6 J/K/mol [middle of 4 runs]
309.3 K, Crystal 3 | 270.1 ± 12 J/K/mol
319.2 K, Crystal 3 | 280.1 ± 12 J/K/mol
319.4 K, Crystal 3 | 278 ± 6.8 J/K/mol [middle of 4 runs]
329.1 K, Crystal 3 | 286.4 ± 12 J/K/mol
329.6 K, Crystal 3 | 287.1 ± 7 J/K/mol [middle of 4 runs]
339.1 K, Crystal 3 | 295.8 ± 12 J/K/mol
339.8 K, Crystal 3 | 296.6 ± 7.3 J/K/mol and 295.5 ± 7.2 J/K/mol and 295.4 ± 7.2 J/K/mol
349 K, Crystal 3 | 307.1 ± 13 J/K/mol and 303.7 ± 13 J/K/mol
350 K, Crystal 3 | 304.2 ± 7.5 J/K/mol [middle of 4 runs]
359 K, Crystal 3 | 312.4 ± 13 J/K/mol and 314.7 ± 13 J/K/mol
368.9 K, Crystal 3 | 324.2 ± 14 J/K/mol and 319.7 ± 14 J/K/mol
378.9 K, Crystal 3 | 330.2 ± 14 J/K/mol and 332.5 ± 14 J/K/mol
388.8 K, Crystal 3 | 341.4 ± 14 J/K/mol
408.7 K, Crystal 2 | 357.6 ± 15 J/K/mol
418.6 K, Crystal 2 | 364.9 ± 16 J/K/mol and 365.7 ± 16 J/K/mol
428.6 K, Crystal 2 | 378.1 ± 16 J/K/mol
438.5 K, Crystal 2 | 381.3 ± 16 J/K/mol and 383.5 ± 16 J/K/mol
448.5 K, Crystal 2 | 391.9 ± 17 J/K/mol and 392.5 ± 17 J/K/mol
458.4 K, Crystal 2 | 403 ± 17 J/K/mol
468.4 K, Crystal 2 | 409.4 ± 17 J/K/mol and 411.7 ± 18 J/K/mol
478.3 K, Crystal 2 | 417.9 ± 18 J/K/mol
488.2 K, Crystal 2 | 426.2 ± 18 J/K/mol
498.2 K, Crystal 2 | 438.5 ± 19 J/K/mol
508.1 K, Crystal 2 | 444.3 ± 19 J/K/mol
518.1 K, Crystal 2 | 454.5 ± 19 J/K/mol
528 K, Crystal 2 | 459.9 ± 20 J/K/mol
538 K, Crystal 2 | 474.1 ± 20 J/K/mol
547.9 K, Crystal 2 | 479.3 ± 20 J/K/mol
557.8 K, Crystal 2 | 493.4 ± 21 J/K/mol
647.32 K, Liquid | 505.18 ± 31 J/K/mol
657.27 K, Liquid | 509.31 ± 31 J/K/mol
667.21 K, Liquid | 513.42 ± 32 J/K/mol

c1ccc2cc3cc4cc5ccccc5cc4cc3cc2c1 [2,3:6,7-dibenzanthracene]
[3], Crystal
Settings | molar heat capacity at constant pressure
258.1 K | 264.5 ± 6.5 J/K/mol and 265.5 ± 6.5 J/K/mol and 267.2 ± 6.5 J/K/mol
268.3 K | 275.7 ± 6.8 J/K/mol and 277.2 ± 6.8 J/K/mol and 277.1 ± 6.8 J/K/mol
278.5 K | 288.9 ± 7.1 J/K/mol and 287.1 ± 7 J/K/mol and 287.5 ± 7 J/K/mol
288.7 K | 299.7 ± 7.3 J/K/mol and 299.2 ± 7.3 J/K/mol
298.9 K | 311.6 ± 7.6 J/K/mol and 311.5 ± 7.6 J/K/mol and 311 ± 7.6 J/K/mol
309.1 K | 322.1 ± 7.9 J/K/mol and 322.4 ± 7.9 J/K/mol and 322.3 ± 7.9 J/K/mol
309.2 K | 324.4 ± 14 J/K/mol
319.2 K | 338.9 ± 14 J/K/mol
319.4 K | 332.5 ± 8.1 J/K/mol and 333.2 ± 8.2 J/K/mol and 332.1 ± 8.1 J/K/mol
329.6 K | 345.7 ± 8.5 J/K/mol and 346.5 ± 8.5 J/K/mol and 344.5 ± 8.4 J/K/mol
339.8 K | 356.2 ± 8.7 J/K/mol and 354.9 ± 8.7 J/K/mol and 355.1 ± 8.7 J/K/mol
350 K | 365.5 ± 9 J/K/mol and 367.2 ± 9 J/K/mol and 366 ± 9 J/K/mol
359 K | 384.6 ± 16 J/K/mol
368.9 K | 394.9 ± 17 J/K/mol
378.9 K | 406 ± 17 J/K/mol
388.8 K | 411.4 ± 18 J/K/mol
398.7 K | 427.1 ± 18 J/K/mol
408.7 K | 425.7 ± 18 J/K/mol
418.6 K | 436.8 ± 18 J/K/mol
428.6 K | 450.1 ± 19 J/K/mol
438.5 K | 457.6 ± 19 J/K/mol
448.5 K | 466.7 ± 20 J/K/mol
458.4 K | 476.5 ± 20 J/K/mol
468.3 K | 481.6 ± 20 J/K/mol
478.3 K | 497.2 ± 21 J/K/mol
488.2 K | 501.9 ± 21 J/K/mol
498.2 K | 509.1 ± 22 J/K/mol
508.1 K | 518.2 ± 22 J/K/mol
518.1 K | 527.8 ± 22 J/K/mol
528 K | 529.1 ± 22 J/K/mol
537.9 K | 549.1 ± 23 J/K/mol
547.9 K | 552.3 ± 23 J/K/mol
557.8 K | 558.6 ± 24 J/K/mol
567.8 K | 566.7 ± 24 J/K/mol
577.7 K | 575.7 ± 24 J/K/mol
587.7 K | 578.8 ± 25 J/K/mol
597.6 K | 592.5 ± 25 J/K/mol
